≈ marks a conversion by molar mass, not a printed value.
system: Staphylococcus epidermidis; assay: Antibacterial activity against Staphylococcus epidermidis MTCC 3615 assessed as zone of inhibition at 1 mg/disc after 24 hrs by disc diffusion method; format: functional; details: not given

SMILES | inhibition zone (IZ) [mm]
C=CCN1C(=O)[C@]2(c3ccccc31)[C@H](c1cn(-c3ccccc3)nc1-c1ccccc1)[C@@](C#N)(C(=O)c1c[nH]c3ccccc13)CN2C | 10
CN1C[C@](C#N)(C(=O)c2c[nH]c3ccccc23)[C@@H](c2cn(-c3ccccc3)nc2-c2ccccc2)[C@@]12C(=O)N(Cc1ccccc1)c1ccccc12 | 8
CCCCN1C(=O)[C@]2(c3ccccc31)[C@H](c1cn(-c3ccccc3)nc1-c1ccccc1)[C@@](C#N)(C(=O)c1c[nH]c3ccccc13)CN2C | 9

system: Proteus vulgaris; assay: Antibacterial activity against Proteus vulgaris MTCC 1771 assessed as zone of inhibition at 1 mg/disc after 24 hrs by disc diffusion method; format: functional; details: not given

SMILES | inhibition zone (IZ) [mm]
C=CCN1C(=O)[C@]2(c3ccccc31)[C@H](c1cn(-c3ccccc3)nc1-c1ccccc1)[C@@](C#N)(C(=O)c1c[nH]c3ccccc13)CN2C | 8
CN1C[C@](C#N)(C(=O)c2c[nH]c3ccccc23)[C@@H](c2cn(-c3ccccc3)nc2-c2ccccc2)[C@@]12C(=O)N(Cc1ccccc1)c1ccccc12 | 10
CCCCN1C(=O)[C@]2(c3ccccc31)[C@H](c1cn(-c3ccccc3)nc1-c1ccccc1)[C@@](C#N)(C(=O)c1c[nH]c3ccccc13)CN2C | 8

system: Staphylococcus aureus; assay: Antibacterial activity against methicillin-resistant Staphylococcus aureus assessed as zone of inhibition at 1 mg/disc after 24 hrs by disc diffusion method; format: functional; details: not given

SMILES | inhibition zone (IZ) [mm]
C=CCN1C(=O)[C@]2(c3ccccc31)[C@H](c1cn(-c3ccccc3)nc1-c1ccccc1)[C@@](C#N)(C(=O)c1c[nH]c3ccccc13)CN2C | 8
CN1C[C@](C#N)(C(=O)c2c[nH]c3ccccc23)[C@@H](c2cn(-c3ccccc3)nc2-c2ccccc2)[C@@]12C(=O)N(Cc1ccccc1)c1ccccc12 | 8

system: Proteus vulgaris; assay: Antibacterial activity against Proteus vulgaris MTCC 1771 assessed as inhibition of visual growth after 24 hrs; format: functional; details: MTCC 1771, 24 h

SMILES | MIC [mg/L]
C=CCN1C(=O)[C@]2(c3ccccc31)[C@H](c1cn(-c3ccccc3)nc1-c1ccccc1)[C@@](C#N)(C(=O)c1c[nH]c3ccccc13)CN2C | 500 (≈ 795 µM)
CN1C[C@](C#N)(C(=O)c2c[nH]c3ccccc23)[C@@H](c2cn(-c3ccccc3)nc2-c2ccccc2)[C@@]12C(=O)N(Cc1ccccc1)c1ccccc12 | 250 (≈ 368 µM)
CCCCN1C(=O)[C@]2(c3ccccc31)[C@H](c1cn(-c3ccccc3)nc1-c1ccccc1)[C@@](C#N)(C(=O)c1c[nH]c3ccccc13)CN2C | 500 (≈ 775 µM)

system: Malassezia pachydermatis; assay: Antifungal activity against Malassezia pachydermatis assessed as inhibition of visual growth after 48 to 72 hrs; format: functional; details: not given

SMILES | MIC [mg/L]
C=CCN1C(=O)[C@]2(c3ccccc31)[C@H](c1cn(-c3ccccc3)nc1-c1ccccc1)[C@@](C#N)(C(=O)c1c[nH]c3ccccc13)CN2C | 250 (≈ 398 µM)
CN1C[C@](C#N)(C(=O)c2c[nH]c3ccccc23)[C@@H](c2cn(-c3ccccc3)nc2-c2ccccc2)[C@@]12C(=O)N(Cc1ccccc1)c1ccccc12 | 500 (≈ 737 µM)
CCCCN1C(=O)[C@]2(c3ccccc31)[C@H](c1cn(-c3ccccc3)nc1-c1ccccc1)[C@@](C#N)(C(=O)c1c[nH]c3ccccc13)CN2C | 250 (≈ 388 µM)

system: Micrococcus luteus; assay: Antibacterial activity against Micrococcus luteus MTCC 106 assessed as inhibition of visual growth after 24 hrs; format: functional; details: MTCC 106, 24 h

SMILES | MIC [mg/L]
C=CCN1C(=O)[C@]2(c3ccccc31)[C@H](c1cn(-c3ccccc3)nc1-c1ccccc1)[C@@](C#N)(C(=O)c1c[nH]c3ccccc13)CN2C | 250 (≈ 398 µM)
CN1C[C@](C#N)(C(=O)c2c[nH]c3ccccc23)[C@@H](c2cn(-c3ccccc3)nc2-c2ccccc2)[C@@]12C(=O)N(Cc1ccccc1)c1ccccc12 | 500 (≈ 737 µM)
CCCCN1C(=O)[C@]2(c3ccccc31)[C@H](c1cn(-c3ccccc3)nc1-c1ccccc1)[C@@](C#N)(C(=O)c1c[nH]c3ccccc13)CN2C | 250 (≈ 388 µM)

system: Staphylococcus aureus; assay: Antibacterial activity against methicillin-resistant Staphylococcus aureus assessed as inhibition of visual growth after 24 hrs; format: functional; details: not given

SMILES | MIC [mg/L]
C=CCN1C(=O)[C@]2(c3ccccc31)[C@H](c1cn(-c3ccccc3)nc1-c1ccccc1)[C@@](C#N)(C(=O)c1c[nH]c3ccccc13)CN2C | 500 (≈ 795 µM)
CN1C[C@](C#N)(C(=O)c2c[nH]c3ccccc23)[C@@H](c2cn(-c3ccccc3)nc2-c2ccccc2)[C@@]12C(=O)N(Cc1ccccc1)c1ccccc12 | 500 (≈ 737 µM)

system: Staphylococcus aureus; assay: Antibacterial activity against Staphylococcus aureus MTCC 96 assessed as zone of inhibition at 1 mg/disc after 24 hrs by disc diffusion method; format: functional; details: not given

SMILES | inhibition zone (IZ) [mm]
C=CCN1C(=O)[C@]2(c3ccccc31)[C@H](c1cn(-c3ccccc3)nc1-c1ccccc1)[C@@](C#N)(C(=O)c1c[nH]c3ccccc13)CN2C | 11
CN1C[C@](C#N)(C(=O)c2c[nH]c3ccccc23)[C@@H](c2cn(-c3ccccc3)nc2-c2ccccc2)[C@@]12C(=O)N(Cc1ccccc1)c1ccccc12 | 9

system: Klebsiella aerogenes; assay: Antibacterial activity against Enterobacter aerogenes MTCC 111 assessed as inhibition of visual growth after 24 hrs; format: functional; details: MTCC 111, 24 h

SMILES | MIC [mg/L]
C=CCN1C(=O)[C@]2(c3ccccc31)[C@H](c1cn(-c3ccccc3)nc1-c1ccccc1)[C@@](C#N)(C(=O)c1c[nH]c3ccccc13)CN2C | 250 (≈ 398 µM)
CN1C[C@](C#N)(C(=O)c2c[nH]c3ccccc23)[C@@H](c2cn(-c3ccccc3)nc2-c2ccccc2)[C@@]12C(=O)N(Cc1ccccc1)c1ccccc12 | 500 (≈ 737 µM)
CCCCN1C(=O)[C@]2(c3ccccc31)[C@H](c1cn(-c3ccccc3)nc1-c1ccccc1)[C@@](C#N)(C(=O)c1c[nH]c3ccccc13)CN2C | 125 (≈ 194 µM)

system: Staphylococcus epidermidis; assay: Antibacterial activity against Staphylococcus epidermidis MTCC 3615 assessed as inhibition of visual growth after 24 hrs; format: functional; details: MTCC 3615, 24 h

SMILES | MIC [mg/L]
C=CCN1C(=O)[C@]2(c3ccccc31)[C@H](c1cn(-c3ccccc3)nc1-c1ccccc1)[C@@](C#N)(C(=O)c1c[nH]c3ccccc13)CN2C | 250 (≈ 398 µM)
CN1C[C@](C#N)(C(=O)c2c[nH]c3ccccc23)[C@@H](c2cn(-c3ccccc3)nc2-c2ccccc2)[C@@]12C(=O)N(Cc1ccccc1)c1ccccc12 | 500 (≈ 737 µM)
CCCCN1C(=O)[C@]2(c3ccccc31)[C@H](c1cn(-c3ccccc3)nc1-c1ccccc1)[C@@](C#N)(C(=O)c1c[nH]c3ccccc13)CN2C | 500 (≈ 775 µM)

system: Micrococcus luteus; assay: Antibacterial activity against Micrococcus luteus MTCC 106 assessed as zone of inhibition at 1 mg/disc after 24 hrs by disc diffusion method; format: functional; details: not given

SMILES | inhibition zone (IZ) [mm]
C=CCN1C(=O)[C@]2(c3ccccc31)[C@H](c1cn(-c3ccccc3)nc1-c1ccccc1)[C@@](C#N)(C(=O)c1c[nH]c3ccccc13)CN2C | 12
CN1C[C@](C#N)(C(=O)c2c[nH]c3ccccc23)[C@@H](c2cn(-c3ccccc3)nc2-c2ccccc2)[C@@]12C(=O)N(Cc1ccccc1)c1ccccc12 | 9
CCCCN1C(=O)[C@]2(c3ccccc31)[C@H](c1cn(-c3ccccc3)nc1-c1ccccc1)[C@@](C#N)(C(=O)c1c[nH]c3ccccc13)CN2C | 11

system: Staphylococcus aureus; assay: Antibacterial activity against Staphylococcus aureus MTCC 96 assessed as inhibition of visual growth after 24 hrs; format: functional; details: MTCC 96, 24 h

SMILES | MIC [mg/L]
C=CCN1C(=O)[C@]2(c3ccccc31)[C@H](c1cn(-c3ccccc3)nc1-c1ccccc1)[C@@](C#N)(C(=O)c1c[nH]c3ccccc13)CN2C | 250 (≈ 398 µM)
CN1C[C@](C#N)(C(=O)c2c[nH]c3ccccc23)[C@@H](c2cn(-c3ccccc3)nc2-c2ccccc2)[C@@]12C(=O)N(Cc1ccccc1)c1ccccc12 | 500 (≈ 737 µM)

system: Malassezia pachydermatis; assay: Antifungal activity against Malassezia pachydermatis assessed as zone of inhibition at 1 mg/disc after 48 hrs by disc diffusion method; format: functional; details: not given

SMILES | inhibition zone (IZ) [mm]
C=CCN1C(=O)[C@]2(c3ccccc31)[C@H](c1cn(-c3ccccc3)nc1-c1ccccc1)[C@@](C#N)(C(=O)c1c[nH]c3ccccc13)CN2C | 11
CN1C[C@](C#N)(C(=O)c2c[nH]c3ccccc23)[C@@H](c2cn(-c3ccccc3)nc2-c2ccccc2)[C@@]12C(=O)N(Cc1ccccc1)c1ccccc12 | 9
CCCCN1C(=O)[C@]2(c3ccccc31)[C@H](c1cn(-c3ccccc3)nc1-c1ccccc1)[C@@](C#N)(C(=O)c1c[nH]c3ccccc13)CN2C | 11

system: Klebsiella pneumoniae; assay: Antibacterial activity against Klebsiella pneumoniae MTCC 109 assessed as inhibition of visual growth after 24 hrs; format: functional; details: MTCC 109, 24 h

SMILES | MIC [mg/L]
C=CCN1C(=O)[C@]2(c3ccccc31)[C@H](c1cn(-c3ccccc3)nc1-c1ccccc1)[C@@](C#N)(C(=O)c1c[nH]c3ccccc13)CN2C | 125 (≈ 199 µM)
CN1C[C@](C#N)(C(=O)c2c[nH]c3ccccc23)[C@@H](c2cn(-c3ccccc3)nc2-c2ccccc2)[C@@]12C(=O)N(Cc1ccccc1)c1ccccc12 | 250 (≈ 368 µM)
CCCCN1C(=O)[C@]2(c3ccccc31)[C@H](c1cn(-c3ccccc3)nc1-c1ccccc1)[C@@](C#N)(C(=O)c1c[nH]c3ccccc13)CN2C | 500 (≈ 775 µM)

system: Klebsiella aerogenes; assay: Antibacterial activity against Enterobacter aerogenes MTCC 111 assessed as zone of inhibition at 1 mg/disc after 24 hrs by disc diffusion method; format: functional; details: not given

SMILES | inhibition zone (IZ) [mm]
C=CCN1C(=O)[C@]2(c3ccccc31)[C@H](c1cn(-c3ccccc3)nc1-c1ccccc1)[C@@](C#N)(C(=O)c1c[nH]c3ccccc13)CN2C | 11
CN1C[C@](C#N)(C(=O)c2c[nH]c3ccccc23)[C@@H](c2cn(-c3ccccc3)nc2-c2ccccc2)[C@@]12C(=O)N(Cc1ccccc1)c1ccccc12 | 10
CCCCN1C(=O)[C@]2(c3ccccc31)[C@H](c1cn(-c3ccccc3)nc1-c1ccccc1)[C@@](C#N)(C(=O)c1c[nH]c3ccccc13)CN2C | 13

system: Candida albicans; assay: Antifungal activity against Candida albicans MTCC 227 assessed as zone of inhibition at 1 mg/disc after 48 hrs by disc diffusion method; format: functional; details: not given

SMILES | inhibition zone (IZ) [mm]
CN1C[C@](C#N)(C(=O)c2c[nH]c3ccccc23)[C@@H](c2cn(-c3ccccc3)nc2-c2ccccc2)[C@@]12C(=O)N(Cc1ccccc1)c1ccccc12 | 8
CCCCN1C(=O)[C@]2(c3ccccc31)[C@H](c1cn(-c3ccccc3)nc1-c1ccccc1)[C@@](C#N)(C(=O)c1c[nH]c3ccccc13)CN2C | 9

system: Klebsiella pneumoniae; assay: Antibacterial activity against Klebsiella pneumoniae MTCC 109 assessed as zone of inhibition at 1 mg/disc after 24 hrs by disc diffusion method; format: functional; details: not given

SMILES | inhibition zone (IZ) [mm]
C=CCN1C(=O)[C@]2(c3ccccc31)[C@H](c1cn(-c3ccccc3)nc1-c1ccccc1)[C@@](C#N)(C(=O)c1c[nH]c3ccccc13)CN2C | 10
CN1C[C@](C#N)(C(=O)c2c[nH]c3ccccc23)[C@@H](c2cn(-c3ccccc3)nc2-c2ccccc2)[C@@]12C(=O)N(Cc1ccccc1)c1ccccc12 | 11
CCCCN1C(=O)[C@]2(c3ccccc31)[C@H](c1cn(-c3ccccc3)nc1-c1ccccc1)[C@@](C#N)(C(=O)c1c[nH]c3ccccc13)CN2C | 9

system: Candida albicans; assay: Antifungal activity against Candida albicans MTCC 227 assessed as inhibition of visual growth after 48 to 72 hrs; format: functional; details: not given

SMILES | MIC [mg/L]
CN1C[C@](C#N)(C(=O)c2c[nH]c3ccccc23)[C@@H](c2cn(-c3ccccc3)nc2-c2ccccc2)[C@@]12C(=O)N(Cc1ccccc1)c1ccccc12 | 500 (≈ 737 µM)
CCCCN1C(=O)[C@]2(c3ccccc31)[C@H](c1cn(-c3ccccc3)nc1-c1ccccc1)[C@@](C#N)(C(=O)c1c[nH]c3ccccc13)CN2C | 500 (≈ 775 µM)

Source: ChEMBL document CHEMBL3351686, “Facile and diastereoselective synthesis of 3,2'-spiropyrrolidine-oxindoles derivatives, their molecular docking and antiproliferative activities” (2015)
